Data: ChEMBL document CHEMBL1201862, “PubChem BioAssay data set” (2004)
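The compound was tested at five concentrations on cells cultured in 96-well plates, with a 48-hour exposure period. GI50 = concentration required for 50% inhibition of growth.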 Calls of active or inactive are those of the source. Cut-off read from the data, not from the text of the source: active = GI50 up to about 1.1 µM and inactive = higher.

Key:
Test in all cases: NCI anticancer screen, dose series, 48 h
HT-29 = tested on: HT-29
SNB-19 = tested on: SNB-19
CCRF-CEM = tested on: CCRF-CEM
SF-295 = tested on: SF-295
786-0 = tested on: 786-0
CAKI-1 = tested on: CAKI-1
OVCAR-3 = tested on: OVCAR-3
SK-MEL-2 = tested on: SK-MEL-2
COLO 205 = tested on: COLO 205
PC-3 = tested on: PC-3
HCT-116 = tested on: HCT-116
T47D = tested on: T47D
LOX IMVI = tested on: LOX IMVI
OVCAR-5 = tested on: OVCAR-5
NCI-H460 = tested on: NCI-H460
KM12 = tested on: KM12
OVCAR-4 = tested on: OVCAR-4
BT-549 = tested on: BT-549
U-251 = tested on: U-251
SF-268 = tested on: SF-268
NCI-H226 = tested on: NCI-H226
MCF7 = tested on: MCF7
SK-MEL-28 = tested on: SK-MEL-28
TK-10 = tested on: TK-10
SF-539 = tested on: SF-539
ACHN = tested on: ACHN
A498 = tested on: A498
MDA-MB-231 = tested on: MDA-MB-231
HCC 2998 = tested on: HCC 2998
SN12C = tested on: SN12C
M14 = tested on: M14
Malme-3M = tested on: Malme-3M
SNB-75 = tested on: SNB-75
EKVX = tested on: EKVX
OVCAR-8 = tested on: OVCAR-8
NCI/ADR-RES = tested on: NCI/ADR-RES
Hs-578T = tested on: Hs-578T
SK-MEL-5 = tested on: SK-MEL-5
UACC-257 = tested on: UACC-257
SW-620 = tested on: SW-620
RPMI-8226 = tested on: RPMI-8226
DU-145 = tested on: DU-145
MOLT-4 = tested on: MOLT-4
IGROV-1 = tested on: IGROV-1
HCT-15 = tested on: HCT-15
UO-31 = tested on: UO-31
HL-60 = tested on: HL-60
A549 = tested on: A549
HOP-92 = tested on: HOP-92
NCI-H522 = tested on: NCI-H522
MDA-MB-435 = tested on: MDA-MB-435
NCI-H23 = tested on: NCI-H23
SK-OV-3 = tested on: SK-OV-3
UACC-62 = tested on: UACC-62
K562 = tested on: K562
RXF 393 = tested on: RXF 393
SR = tested on: SR
HOP-62 = tested on: HOP-62

Measured: GI50

Cc1cccc(C)c1NC(=O)/C(Cc1nc2ccc([N+](=O)[O-])cc2nc1O)=N\NC(N)=O
> 100 µM: HCT-15
inactive: HT-29 > 100 µM | SNB-19 > 100 µM | CCRF-CEM 19.6 µM | SF-295 > 100 µM | 786-0 > 100 µM | CAKI-1 > 100 µM | OVCAR-3 > 100 µM | SK-MEL-2 > 100 µM | COLO 205 38.9 µM | PC-3 66.5 µM | HCT-116 83.2 µM | T47D > 100 µM | LOX IMVI 22.1 µM | OVCAR-5 > 100 µM | NCI-H460 > 100 µM | KM12 57.5 µM | OVCAR-4 90.6 µM | BT-549 7.19 µM | U-251 > 100 µM | SF-268 > 100 µM | NCI-H226 > 100 µM | MCF7 63.1 µM | SK-MEL-28 > 100 µM | TK-10 > 100 µM | SF-539 > 100 µM | ACHN 94 µM | A498 82.4 µM | MDA-MB-231 > 100 µM | HCC 2998 > 100 µM | SN12C > 100 µM | M14 > 100 µM | Malme-3M > 100 µM | SNB-75 > 100 µM | EKVX 64.6 µM | OVCAR-8 > 100 µM | NCI/ADR-RES 85.5 µM | Hs-578T > 100 µM | SK-MEL-5 > 100 µM | UACC-257 > 100 µM | SW-620 52.5 µM | RPMI-8226 37.9 µM | DU-145 > 100 µM | MOLT-4 31.6 µM | IGROV-1 89.3 µM | UO-31 45.3 µM | HL-60 32.5 µM | A549 > 100 µM | HOP-92 57.8 µM | NCI-H522 31.6 µM | MDA-MB-435 98.2 µM | NCI-H23 > 100 µM | SK-OV-3 > 100 µM | UACC-62 80.9 µM | K562 39.7 µM

CCOC(=O)C[n+]1cccc(C2(c3cc4ccccc4[nH]3)OCCO2)c1
inactive: HT-29 > 100 µM | SNB-19 > 100 µM | CCRF-CEM > 100 µM | SF-295 > 100 µM | 786-0 > 100 µM | CAKI-1 > 100 µM | OVCAR-3 > 100 µM | SK-MEL-2 > 100 µM | COLO 205 > 100 µM | RXF 393 > 100 µM | PC-3 > 100 µM | HCT-116 > 100 µM | T47D > 100 µM | LOX IMVI > 100 µM | OVCAR-5 > 100 µM | NCI-H460 > 100 µM | SR > 100 µM | KM12 > 100 µM | OVCAR-4 > 100 µM | BT-549 > 100 µM | U-251 > 100 µM | SF-268 > 100 µM | NCI-H226 > 100 µM | MCF7 > 100 µM | SK-MEL-28 > 100 µM | TK-10 > 100 µM | SF-539 > 100 µM | ACHN > 100 µM | A498 > 100 µM | MDA-MB-231 > 100 µM | HCC 2998 > 100 µM | M14 > 100 µM | Malme-3M > 100 µM | SNB-75 > 100 µM | EKVX > 100 µM | OVCAR-8 > 100 µM | NCI/ADR-RES > 100 µM | Hs-578T > 100 µM | SK-MEL-5 > 100 µM | UACC-257 > 100 µM | SW-620 > 100 µM | RPMI-8226 > 100 µM | HOP-62 > 100 µM | DU-145 > 100 µM | MOLT-4 > 100 µM | IGROV-1 > 100 µM | UO-31 > 100 µM | HL-60 > 100 µM | A549 > 100 µM | HOP-92 > 100 µM | MDA-MB-435 > 100 µM | NCI-H23 > 100 µM | SK-OV-3 > 100 µM | UACC-62 > 100 µM | K562 > 100 µM
> 100 µM: HCT-15

O=[N+]([O-])c1c(Br)cc(Br)c2c1Nc1c(ccc(Cl)c1Cl)S2
inactive: HT-29 11.7 µM | SNB-19 18.3 µM | CCRF-CEM 2.39 µM | SF-295 20.7 µM | 786-0 9.18 µM | CAKI-1 16.5 µM | OVCAR-3 4.8 µM | SK-MEL-2 18.5 µM | COLO 205 11.9 µM | RXF 393 19.6 µM | PC-3 17.7 µM | HCT-116 6.37 µM | T47D 1.61 µM | LOX IMVI 2.34 µM | OVCAR-5 17.9 µM | NCI-H460 17.8 µM | SR 5.86 µM | KM12 5.89 µM | OVCAR-4 13.9 µM | BT-549 2.88 µM | U-251 17.9 µM | SF-268 16.3 µM | NCI-H226 5.96 µM | MCF7 2.87 µM | SK-MEL-28 16.6 µM | TK-10 22.5 µM | SF-539 22.2 µM | ACHN 16.8 µM | A498 21.1 µM | MDA-MB-231 13.2 µM | HCC 2998 12.4 µM | SN12C 13.8 µM | M14 11.4 µM | Malme-3M 13.4 µM | SNB-75 36.5 µM | EKVX 16.6 µM | OVCAR-8 2.79 µM | NCI/ADR-RES 29.5 µM | Hs-578T 25.1 µM | SK-MEL-5 13.6 µM | UACC-257 8.49 µM | SW-620 7.14 µM | RPMI-8226 14.4 µM | HOP-62 18.8 µM | DU-145 14.1 µM | MOLT-4 3.06 µM | IGROV-1 14.9 µM | UO-31 7.91 µM | HL-60 2.85 µM | A549 20.2 µM | HOP-92 18.7 µM | NCI-H522 6.53 µM | MDA-MB-435 15.5 µM | NCI-H23 14.4 µM | SK-OV-3 19.6 µM | UACC-62 16 µM | K562 3.45 µM
16.9 µM: HCT-15

COc1cc2c(cc1OC)C(N)CC2=O (configuration not stated)
> 100 µM: HCT-15
inactive: HT-29 > 100 µM | SNB-19 > 100 µM | CCRF-CEM > 100 µM | SF-295 > 100 µM | 786-0 > 100 µM | CAKI-1 > 100 µM | OVCAR-3 > 100 µM | SK-MEL-2 > 100 µM | COLO 205 > 100 µM | RXF 393 > 100 µM | PC-3 > 100 µM | HCT-116 > 100 µM | T47D > 100 µM | LOX IMVI > 100 µM | OVCAR-5 > 100 µM | SR > 100 µM | KM12 > 100 µM | OVCAR-4 > 100 µM | BT-549 > 100 µM | U-251 > 100 µM | SF-268 > 100 µM | NCI-H226 9.06 µM | MCF7 > 100 µM | SK-MEL-28 > 100 µM | TK-10 > 100 µM | SF-539 > 100 µM | ACHN > 100 µM | A498 > 100 µM | MDA-MB-231 > 100 µM | HCC 2998 > 100 µM | SN12C > 100 µM | M14 > 100 µM | SNB-75 > 100 µM | EKVX > 100 µM | OVCAR-8 > 100 µM | NCI/ADR-RES > 100 µM | Hs-578T > 100 µM | SK-MEL-5 > 100 µM | UACC-257 > 100 µM | SW-620 > 100 µM | RPMI-8226 > 100 µM | HOP-62 > 100 µM | DU-145 > 100 µM | MOLT-4 > 100 µM | IGROV-1 > 100 µM | UO-31 > 100 µM | A549 > 100 µM | HOP-92 > 100 µM | NCI-H522 > 100 µM | MDA-MB-435 > 100 µM | NCI-H23 > 100 µM | SK-OV-3 > 100 µM | UACC-62 > 100 µM | K562 > 100 µM

Cc1ccccc1N/C(=C(/C(Cl)=C(Cl)Cl)[N+](=O)[O-])n1nnc2ccccc21
inactive: HT-29 19.4 µM | SNB-19 19.6 µM | CCRF-CEM 29.6 µM | SF-295 14.9 µM | 786-0 34 µM | CAKI-1 20.4 µM | OVCAR-3 16.9 µM | SK-MEL-2 10.8 µM | COLO 205 15.7 µM | PC-3 22.1 µM | HCT-116 42.4 µM | T47D 21 µM | OVCAR-5 16.8 µM | NCI-H460 14.2 µM | KM12 15.9 µM | OVCAR-4 17.5 µM | BT-549 14.1 µM | U-251 16.3 µM | SF-268 15.7 µM | NCI-H226 17.6 µM | MCF7 27.7 µM | SK-MEL-28 17 µM | SF-539 17.6 µM | ACHN 29.2 µM | A498 19.4 µM | MDA-MB-231 21.3 µM | HCC 2998 18 µM | SN12C 17 µM | M14 24.5 µM | Malme-3M 14.7 µM | SNB-75 16.6 µM | EKVX 20.5 µM | NCI/ADR-RES 18.2 µM | Hs-578T 11.6 µM | UACC-257 28.9 µM | SW-620 15.9 µM | RPMI-8226 24.1 µM | HOP-62 16.9 µM | DU-145 22.4 µM | MOLT-4 > 100 µM | UO-31 16.7 µM | A549 41.7 µM | MDA-MB-435 16.5 µM | NCI-H23 19.1 µM | SK-OV-3 15.3 µM | UACC-62 22.7 µM | K562 21.1 µM
15.4 µM: HCT-15
